Data on 27 compounds can be found in PubChem BioAssay (NCI).

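Grown in 96-well plates, cells were treated for 48 hours with each compound at five concentrations. Insufficient inhibition: endpoint recorded as highest concentration tested. Abbreviation: GI50, concentration required for 50% inhibition of growth. Definition used: TGI = concentration required for complete inhibition of growth.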

Holding throughout (experiment): NCI-60 cell line screen, 48 h
The test system of assay [1] is PC-3 prostate.
Assay [2] relates to T-47D breast.
For assay [3], the system named is CCRF-CEM leukemia.
The test system of assay [4] is BT-549 breast.
In assay [5] the test system is MOLT-4 leukemia.
For assay [6], the system named is HS 578T breast.
Assay [7] has as its system HT29 colon.
In assay [8] the test system is OVCAR-4 ovarian.
The subject of assay [9] is K-562 leukemia.
The test system of assay [10] is NCI-H460 lung.

Consider `C=C1CCC[C@@H](C)C(O)[C@@H]2OC(=O)C(=C)[C@@H]2C[C@@H](OC(C)=O)[C@@]2(C)CC[C@@H]1O2` (stereo partly specified), for which the TGI in assay [1] was 16.2 µM; in assay [2] it was 19.2 µM; in assay [3], 6.8 µM; in assay [4], 14.4 µM; in assay [5], 15.4 µM; in [6], 29.4 µM. For the same compound, the TGI in assay [7] was 15.3 µM; in assay [8], 36.7 µM; in [9], 12.1 µM.
For the compound `N#Cc1nc(CCc2nc(C#N)c(N)o2)oc1N`, the TGI in assay [1], in assay [2], in [3], in assay [4], in [5] and in [6] was more than 10 µM each time. The TGI in [7], in [10], in [8] and in [9] was more than 10 µM throughout.
`COc1cc2c(cc1O)C1Cc3ccc(OC)c(O)c3C[N+]1(C)CC2` (stereo unspecified): the TGI in assay [1], in [2], in assay [3], in [4], in assay [5] and in [6] was more than 100 µM each time. Besides, the TGI in assay [7], in assay [10], in [8] and in assay [9] was more than 100 µM each time.
Turning to `CC1=C(C)C(=O)C(C2=CC(=O)c3ccccc3C2=O)=C(C2=CC(=O)c3ccccc3C2=O)C1=O`, the TGI in assay [1] is 21.7 µM; in assay [2], 45.1 µM; in assay [4], 48.1 µM; in assay [5] it was more than 36.2 µM; in assay [6], more than 100 µM; in assay [7], 28.7 µM. Also, the TGI in assay [10] turned out to be 25.4 µM; in [8], 42.8 µM.
On to `COc1ccc(CCNC(=O)Cc2ccccc2CO)cc1OC`, for which the TGI in assay [1], in assay [2], in [3], in [4], in [5] and in assay [6] was more than 100 µM each time. The TGI in [7], in assay [10], in assay [8] and in [9] was more than 100 µM in each case.
Take `Oc1ccc(C(O)C2CCCCN2)cc1O` (stereo unspecified): the TGI is more than 100 µM in assay [1]; 54.3 µM in [2]; more than 100 µM in assay [4]; more than 100 µM in [6]; more than 100 µM in [7]; more than 100 µM in assay [10]. For the same compound, the TGI in assay [8] and in assay [9] was more than 100 µM each time.
For the compound `COC(=O)c1sc(=O)sc1SCc1cccc(CSc2sc(=O)sc2C(=O)OC)c1`, the TGI in assay [1], in assay [2], in assay [3], in assay [4], in [5] and in assay [6] was more than 100 µM in each case. For the same compound, the TGI in assay [7] was more than 100 µM; in assay [10], more than 100 µM; in [8], 37.7 µM; in assay [9], more than 100 µM.
For the compound `COC1CC(C)(NC(=O)C(F)(F)F)C2OC(c3ccccc3)OCC2O1` (stereo unspecified), the TGI in [1], in [2], in assay [3], in assay [4], in assay [5] and in assay [6] was more than 100 µM each time. The TGI in assay [7], in [10], in [8] and in assay [9] was more than 100 µM each time.
As to `CC(C)(CO[C@H]1C[C@H]2CC[C@@]1(C)C2(C)C)[N+](=O)[O-]`, the TGI was 54.4 µM in [1]; 45.6 µM in assay [2]; more than 100 µM in assay [3]; 45.5 µM in assay [4]; 50.5 µM in [5]; 55.9 µM in [6]. Further, the TGI in assay [7] is 30.6 µM; in [10] it was 38.5 µM; in [8], 76 µM; in assay [9] it was 35 µM.
For the compound `O=C1NC(O)c2cc3ccccc3cc2O1` (stereo unspecified), the TGI in assay [1] was more than 100 µM; in assay [2], more than 100 µM; in assay [3], more than 100 µM; in assay [4], 82.1 µM; in assay [5], more than 100 µM; in assay [6], more than 100 µM. Besides, the TGI in [7], in assay [10], in assay [8] and in assay [9] was more than 100 µM in each case.
For the compound `O=C1[C@@H]2[C@@H](CN3CN(c4ccccc4)N=C(c4ccccc4)[C@@]23c2ccccc2)C(=O)N1c1ccccc1`, the TGI was 27.1 µM in [1]; 8.04 µM in assay [2]; 13.2 µM in [4]; more than 100 µM in assay [5]; more than 65.8 µM in assay [6]; 6.22 µM in assay [7]. Besides, the TGI in assay [10] was 50.4 µM; in assay [8] it was more than 23.8 µM; in [9] it was more than 25.4 µM.
As to `CCOC(=O)NC(=S)N(CC(=O)c1cc(OC)c(OC)c(OC)c1)c1ccc(Cl)cc1`, the GI50 in assay [1] was 72.2 µM; in assay [2] it was 23.5 µM; in assay [3], 71.4 µM; in assay [4] it was 41.6 µM; in assay [5], 52.3 µM; in [6], 96.4 µM. Moreover, the GI50 in [7] is more than 100 µM; in [10] it was 52.5 µM; in assay [8], 60.6 µM; in [9] it was 51.8 µM. For the same compound, the TGI was more than 100 µM in [1]; 72.9 µM in [2]; more than 100 µM in [3]; more than 100 µM in assay [4]; more than 100 µM in assay [5]; more than 100 µM in assay [6]. In addition, the TGI in assay [7], in [10], in assay [8] and in assay [9] was more than 100 µM each time.
Regarding `C=C(C)C1CC(=O)C(C)=C(O)C1` (stereo unspecified), the TGI in [1], in [2], in [3], in [4], in assay [5] and in assay [6] was more than 100 µM each time. For the same compound, the TGI in [7], in assay [10], in assay [8] and in assay [9] was more than 100 µM throughout.
As for `C[C@]12CC[C@H]3[C@@H](CC=C4C[C@@H](N5CCCC5)CC[C@@]43C)[C@@H]1C[C@H](N1CCCCC1)[C@@H]2O`, the TGI in [1], in assay [2], in [3], in assay [4], in assay [5] and in [6] was more than 100 µM throughout. Further, the TGI in assay [7] is more than 100 µM; in assay [10], more than 100 µM; in assay [8] it was more than 100 µM; in assay [9], 49.6 µM.
`C=C(Br)CN=CN(C)C`: the TGI in assay [1], in [2], in assay [3], in [4], in [5] and in [6] was more than 100 µM each time. The TGI in [7], in [8] and in assay [9] was more than 100 µM throughout.
Turning to `C/C(=N\Nc1nc2ccccc2s1)c1ccncn1`, the TGI in assay [1] was more than 43 µM; in assay [2], more than 100 µM; in assay [3] it was more than 100 µM; in assay [4], 21.4 µM; in assay [6], 26.2 µM; in [7], 14 µM. The TGI in [10] was found to be 14.9 µM; in assay [8], 42.4 µM.
For `Cn1c(=O)c2c(nc3[nH]c(=O)c(Br)cn32)n(C)c1=O`, the TGI in assay [1], in assay [2], in [3], in [4], in assay [5] and in [6] was more than 100 µM in each case. Further, the TGI in [7], in assay [10], in assay [8] and in assay [9] was more than 100 µM each time.
In the case of `C=C1c2nc3ccccc3n2C=C(c2ccc(C)cc2)N1c1ccc(OC)cc1`, the TGI in assay [1], in assay [2], in assay [3], in assay [4], in assay [5] and in assay [6] was more than 100 µM in each case. In addition, the TGI in assay [7] was more than 91.2 µM; in assay [10], more than 100 µM; in assay [8], more than 100 µM; in assay [9], more than 100 µM.
With `COc1ccc(N2C(=O)C3c4[nH]c5c(C)cccc5c4C4CCC(C(C)C)CC4C3C2=O)cc1` (stereo unspecified), the TGI in assay [1] came out at 25.2 µM; in assay [2], 48.6 µM; in assay [4] it was 56 µM; in assay [5] it was 11.2 µM; in assay [6], 27.7 µM; in [7], 13.8 µM. The TGI in [10] is 39.7 µM; in assay [8], 42.3 µM; in assay [9], 5.86 µM.
Turning to `COc1cc(CCNC2=CC(=O)c3nc[nH]c3C2=O)ccc1O`, the TGI was more than 100 µM in [1]; 73.2 µM in assay [2]; more than 100 µM in [3]; 42 µM in assay [4]; 89.1 µM in assay [5]; 72.8 µM in [6]. For the same compound, the TGI in assay [7] was 53.9 µM; in [10], more than 100 µM; in assay [8], 29 µM; in assay [9], more than 100 µM.
Regarding `CC1OC(OC2C(O[C@H]3CC[C@@]4(C)C(=CC[C@H]5[C@@H]6C[C@@H]7O[C@]8(CC[C@@H](C)CO8)[C@@H](C)[C@@H]7[C@@]6(C)CC[C@@H]54)C3)OC(CO)C(O)C2OC2OC(CO)C(O)C(O)C2O)C(O)C(O)C1O` (stereo partly specified), the TGI is 3.55 µM in assay [1]; 4.65 µM in assay [2]; more than 100 µM in assay [3]; 4.73 µM in assay [4]; more than 23.3 µM in assay [5]; 3.74 µM in assay [6]. Moreover, the TGI in assay [7] was more than 100 µM; in [8], 3.31 µM; in assay [9] it was more than 100 µM.
Consider `O=C1Nc2ccccc2/C1=C\c1c(Cl)n(-c2ccccc2)c2ccccc12`, for which the TGI is 60.3 µM in [1]; 56.7 µM in assay [2]; more than 100 µM in [3]; 29.8 µM in assay [4]; more than 100 µM in assay [5]; 5.71 µM in [6]. The TGI in [7] was 6.46 µM; in [10] it was 21.7 µM; in [8], 21.6 µM; in assay [9], more than 100 µM.
With `O=C(Nc1ccccc1)N1CCN(C(=O)Nc2ccccc2)C1=S`, the TGI in assay [2], in [3], in [4], in assay [5], in assay [6] and in assay [7] was more than 100 µM throughout. For the same compound, the TGI in assay [10], in [8] and in assay [9] was more than 100 µM throughout.
As for `N[C@@H](CCC(=O)NC(Cc1ccccc1)C(=O)NCP(=O)(O)O)C(=O)O` (stereo partly specified), the TGI in assay [1], in [2], in [4], in assay [5], in [6] and in [7] was more than 100 µM in each case. In addition, the TGI in assay [10] and in [9] was more than 100 µM throughout.
`N#CCCC(C=O)(CCC#N)CCC#N`: the TGI in [1], in assay [2], in [3], in [4], in assay [6] and in assay [7] was more than 100 µM throughout. Further, the TGI in assay [10], in [8] and in assay [9] was more than 100 µM throughout.
For the compound `COc1cc2c(/C=C3/C(=O)Nc4ccccc43)c(Cl)n(Cc3ccc(Cl)cc3)c2cc1C`, the TGI in [1] worked out at 16.5 µM; in [2], 24.2 µM; in [4], 1.92 µM; in assay [5] it was 0.627 µM; in assay [6], 9.01 µM; in assay [10], 2.3 µM. Also, the TGI in assay [8] was found to be 18.6 µM.
As to `CCc1nc(N)c2nc(-c3cccs3)oc2n1`, the TGI in [1], in assay [2], in [3], in [4], in [5] and in assay [6] was more than 100 µM throughout. Besides, the TGI in assay [7], in assay [10] and in [9] was more than 100 µM throughout.
